From patent publication US20080274892A1, “Novel Haloalkylsulfonanilide Derivative, Herbicide, and Method of Use Thereof” (priority 2005, published 2008)

Assays:
[1] = system: bulrush; assay: Test Example 1: herbicidal efficacy on rice paddy weeds pre-emergence; format: in vivo, Scirpus juncoides; details: 21 days
Description: (§1) A 75 cm^2 plastic pot was filled with soil (clay loam) and planted seeds of bulrush which is a rice paddy weed. After covering the top with 75 cm^3 soil mixed with seeds of false pimpernel, the pot was filled with water so that the soil submerged under 5 cm depth of water. The predetermined effective dosage ([…]) of a formulation containing the compound of the present invention prepared according to Formulation Example 1-4 as an active ingredient was diluted in water and added to the pot water surface dropwise. The pot was kept in a hot house for 21 days and the herbicidal efficacy was investigated. The herbicidal efficacy was evaluated according to the following standard by comparing with untreated control. “-” in the table represents test not done.
(§2) The standard of judgment for herbicidal efficacy (degree of growth inhibition) and phytotoxicity 4 . . . 90%-100% of herbicidal efficacy or phytotoxicity 3 . . . 70%-89% of herbicidal efficacy or phytotoxicity 2 . . . 40%-69% of herbicidal efficacy or phytotoxicity 1 . . . 1%-39% of herbicidal efficacy or phytotoxicity 0 . . . 0% of herbicidal efficacy or phytotoxicity

[2] = system: false pimpernel; assay: as above; format: in vivo, Lindernia pyxidaria; details: 21 days
Description: as §1, §2

[3] = system: barnyard glass; assay: Test Example 2: herbicidal efficacy on rice paddy weeds post-emergence; format: in vivo, Echinochloa crus-galli; details: 21 days after treatment
Source text: as §2
(§3) A 75 cm^2 plastic pot was filled with soil (clay loam) and planted seeds of barnyard glass and bulrush which is a rice paddy weed. After covering the top with 75 cm^3 soil mixed with seeds of false pimpernel, the pot was filled with water so that the soil submerged under 5 cm depth of water and kept in a hot house. […] The pot was kept in a hot house for 21 days after the treatment and the herbicidal efficacy was investigated and evaluated according to the standard in Test Example 1 by comparing with the untreated control. “-” in the table represents test not done.

[4] = system: bulrush; assay: as above; format: in vivo, Scirpus juncoides; details: 21 days after treatment
Source text: as §2, §3

[5] = system: false pimpernel; assay: as above; format: in vivo, Lindernia pyxidaria; details: post-emergence, one leaf stage, 21 days after treatment
Source text: as §2, §3

[6] = system: paddy rice plant (cultivar: Nihonbare); assay: Test Example 3: phytotoxicity test for transplanted paddy rice plant; format: in vivo; details: 21 days after treatment; for Phytotoxicity to paddy rice: transplanted rice
Description: as §2
A 75 cm^2 plastic pot was filled with soil (clay loam), and water was added so that the soil was submerged under 5 cm depth of water. Two paddy rice plant (cultivar: Nihonbare) at two leaves stage were transplanted at the depth of 1 cm and kept in a hot house. […] The pot was kept in a hot house for 21 days after the treatment and the phytotoxicity was investigated and evaluated according to the standard in Test Example 1 by comparing with the untreated control. “-” in the table represents test not done.

[7] = dosage 300 g/ha, post-emergence, one leaf stage
[8] = dosage 1000 g/ha, post-emergence, one leaf stage
[9] = dosage 1000 g/ha, treated 5 days after transplantation
[10] = dosage 1000 g/ha active ingredient, post-emergence treatment at one leaf stage, vs untreated control

| SMILES | Bulrush pre (herbicidal efficacy grade) ([1]; dosage 300 g/ha) | False pimpernel pre (herbicidal efficacy grade) ([2]; dosage 300 g/ha) | Burnyard grass post (herbicidal efficacy grade) [3, 7] | Bulrush post (herbicidal efficacy grade) [4, 7] | False pimpernel post (herbicidal efficacy grade) ([5]; dosage 300 g/ha) | Phytotoxicity to paddy rice ([6]; dosage 300 g/ha) | Bulrush pre (herbicidal efficacy grade) ([1]; dosage 1000 g/ha) | False pimpernel pre (herbicidal efficacy grade) ([2]; dosage 1000 g/ha) | Burnyard grass post (herbicidal efficacy grade) [3, 8] | Bulrush post (herbicidal efficacy grade) [4, 8] | False pimpernel post (herbicidal efficacy grade) ([5]; dosage 1000 g/ha) | Phytotoxicity to paddy rice [6, 9] | other results |
| --- | --- | --- | --- | --- | --- | --- | --- | --- | --- | --- | --- | --- | --- |
| CCCC1COC(=O)N1Cc1ccccc1NS(=O)(=O)C(F)(F)F (stereo not shown) [Compound 1-7] | 4 (90%-100% of herbicidal efficacy or phytotoxicity) | 4 (90%-100% of herbicidal efficacy or phytotoxicity) | 1 (1%-39% of herbicidal efficacy or phytotoxicity) | 4 (90%-100% of herbicidal efficacy or phytotoxicity) | 2 (40%-69% of herbicidal efficacy or phytotoxicity) | 1 (1%-39% of herbicidal efficacy or phytotoxicity) |  |  |  |  |  |  |  |
| CC(C)COC(=O)N(c1ccccc1CN1CC(C)(CC(C)C)OC1=O)S(=O)(=O)C(F)(F)F (racemic) [Compound 1-104] |  |  |  |  |  |  | 4 (90%-100% of herbicidal efficacy or phytotoxicity) | 4 (90%-100% of herbicidal efficacy or phytotoxicity) | 4 (90%-100% of herbicidal efficacy or phytotoxicity) | 4 (90%-100% of herbicidal efficacy or phytotoxicity) | 4 (90%-100% of herbicidal efficacy or phytotoxicity) | 2 (40%-69% of herbicidal efficacy or phytotoxicity) |  |
| CC1(C2CCCCC2)CN(Cc2ccccc2NS(=O)(=O)C(F)(F)F)C(=O)O1 (stereo not shown) [Compound 1-154] | 4 (90%-100% of herbicidal efficacy or phytotoxicity) | 4 (90%-100% of herbicidal efficacy or phytotoxicity) | 1 (1%-39% of herbicidal efficacy or phytotoxicity) | 4 (90%-100% of herbicidal efficacy or phytotoxicity) | 4 (90%-100% of herbicidal efficacy or phytotoxicity) | 1 (1%-39% of herbicidal efficacy or phytotoxicity) |  |  |  |  |  |  |  |
| CC(C)COC(=O)N(c1ccccc1CN1C(=O)SC(C)C1=O)S(=O)(=O)C(F)(F)F (stereo not shown) [Compound 1-200] |  |  |  |  |  |  | 4 (90%-100% of herbicidal efficacy or phytotoxicity) | 2 (40%-69% of herbicidal efficacy or phytotoxicity) | 1 (1%-39% of herbicidal efficacy or phytotoxicity) | 3 (70%-89% of herbicidal efficacy or phytotoxicity) | 3 (70%-89% of herbicidal efficacy or phytotoxicity) | 0 (0% of herbicidal efficacy or phytotoxicity) |  |
| O=C1OC(COc2ccccc2)CN1Cc1ccccc1NS(=O)(=O)C(F)(F)F (racemic) [Compound 1-51] | 3 (70%-89% of herbicidal efficacy or phytotoxicity) | 4 (90%-100% of herbicidal efficacy or phytotoxicity) | 0 (0% of herbicidal efficacy or phytotoxicity) | 4 (90%-100% of herbicidal efficacy or phytotoxicity) | 3 (70%-89% of herbicidal efficacy or phytotoxicity) | 0 (0% of herbicidal efficacy or phytotoxicity) |  |  |  |  |  |  |  |
| CC[C@H]1CN(Cc2ccccc2N(C(=O)OCC(C)C)S(=O)(=O)C(F)(F)F)C(=O)O1 [Compound 1-56] | 4 (90%-100% of herbicidal efficacy or phytotoxicity) | 4 (90%-100% of herbicidal efficacy or phytotoxicity) | 4 (90%-100% of herbicidal efficacy or phytotoxicity) | 4 (90%-100% of herbicidal efficacy or phytotoxicity) | 3 (70%-89% of herbicidal efficacy or phytotoxicity) | 1 (1%-39% of herbicidal efficacy or phytotoxicity) |  |  |  |  |  |  |  |
| COC(=O)N(c1ccccc1CN1CC(C)(COc2ccccc2)OC1=O)S(=O)(=O)C(F)(F)F (stereo not shown) [Compound 1-159] |  |  |  |  |  |  | 4 (90%-100% of herbicidal efficacy or phytotoxicity) | 4 (90%-100% of herbicidal efficacy or phytotoxicity) | 4 (90%-100% of herbicidal efficacy or phytotoxicity) | 4 (90%-100% of herbicidal efficacy or phytotoxicity) | 4 (90%-100% of herbicidal efficacy or phytotoxicity) | 1 (1%-39% of herbicidal efficacy or phytotoxicity) |  |
| CC(C)COC(=O)N(c1ccccc1CN1CC(C)(c2ccccc2)OC1=O)S(=O)(=O)C(F)(F)F (stereo not shown) [Compound 1-141] | 3 (70%-89% of herbicidal efficacy or phytotoxicity) | 4 (90%-100% of herbicidal efficacy or phytotoxicity) |  | 4 (90%-100% of herbicidal efficacy or phytotoxicity) | 4 (90%-100% of herbicidal efficacy or phytotoxicity) | 1 (1%-39% of herbicidal efficacy or phytotoxicity) |  |  |  |  |  |  |  |
| CC(C)=CC1(C)CN(Cc2ccccc2NS(=O)(=O)C(F)(F)F)C(=O)O1 (stereo not shown) [Compound 1-164] |  |  |  |  |  |  | 4 (90%-100% of herbicidal efficacy or phytotoxicity) | 4 (90%-100% of herbicidal efficacy or phytotoxicity) |  | 4 (90%-100% of herbicidal efficacy or phytotoxicity) | 4 (90%-100% of herbicidal efficacy or phytotoxicity) | 1 (1%-39% of herbicidal efficacy or phytotoxicity) |  |
| CC1(COCc2ccccc2)CN(Cc2ccccc2NS(=O)(=O)C(F)(F)F)C(=O)O1 (stereo not shown) [Compound 1-173] |  |  |  |  |  |  | 4 (90%-100% of herbicidal efficacy or phytotoxicity) | 4 (90%-100% of herbicidal efficacy or phytotoxicity) |  | 4 (90%-100% of herbicidal efficacy or phytotoxicity) | 4 (90%-100% of herbicidal efficacy or phytotoxicity) | 1 (1%-39% of herbicidal efficacy or phytotoxicity) |  |
| CC(C)=CC1(C)CN(Cc2ccccc2N(C(=O)OCC(C)C)S(=O)(=O)C(F)(F)F)C(=O)O1 (stereo not shown) [Compound 1-165] |  |  |  |  |  |  | 4 (90%-100% of herbicidal efficacy or phytotoxicity) | 4 (90%-100% of herbicidal efficacy or phytotoxicity) |  | 4 (90%-100% of herbicidal efficacy or phytotoxicity) | 4 (90%-100% of herbicidal efficacy or phytotoxicity) | 1 (1%-39% of herbicidal efficacy or phytotoxicity) |  |
| CC1(C)CN(Cc2cccc(O)c2NS(=O)(=O)C(F)(F)F)C(=O)O1 [1-214] |  |  |  |  |  |  |  |  |  |  |  |  | Bulrush pre (herbicidal efficacy grade) ([1]; dosage 1000 g/ha active ingredient, vs untreated control): 1 (1%-39% of herbicidal efficacy or phytotoxicity); Burnyard grass post (herbicidal efficacy grade) [3, 10]: 0 (0% of herbicidal efficacy or phytotoxicity); Bulrush post (herbicidal efficacy grade) [4, 10]: 1 (1%-39% of herbicidal efficacy or phytotoxicity); Phytotoxicity to paddy rice (grade) ([6]; dosage 1000 g/ha active ingredient, treated 5 days after transplantation, vs untreated control): 0 (0% of herbicidal efficacy or phytotoxicity) |
| CC1(C)OC(=O)N(Cc2cc(Cl)ccc2NS(=O)(=O)C(F)(F)F)C1=O [1-211] |  |  |  |  |  |  | 4 (90%-100% of herbicidal efficacy or phytotoxicity) |  | 4 (90%-100% of herbicidal efficacy or phytotoxicity) | 4 (90%-100% of herbicidal efficacy or phytotoxicity) |  | 4 (90%-100% of herbicidal efficacy or phytotoxicity) |  |
